Test results reported in US20250221410A1, “SUBSTITUTED 2-C-AZINES AND SALTS THEREOF, AND USE THEREOF AS HERBICIDAL ACTIVE SUBSTANCES” (BAYER AKTIENGESELLSCHAFT, priority 2022, published 2025).

Columns and labels:
Format in all cases: in vivo
[1] = tested on: POLCO; assay: Pre-emergence herbicide efficacy at 80 g/ha, POLCO; settings: Polygonum convolvulus, scored visually after about 3 weeks
Excerpt: (§1) Seeds of monocotyledonous and dicotyledonous weed plants and crop plants were placed in plastic or organic planting pots and covered with soil. The compounds of the invention, formulated in the form of wettable powders (WP) or as emulsion concentrates (EC), were then applied to the surface of the covering soil as aqueous suspension or emulsion with addition of 0.5% additive at a water application rate equivalent to 600 l/ha. After the treatment, the pots were placed in a greenhouse and kept under good growth conditions for the test plants. After about 3 weeks, the efficacy of the preparations was scored visually in comparison with untreated controls as percentages. For example, 100% activity=the plants have died, 0% activity=like control plants. Tables D1 to D12 below show the effects of selected compounds of the general formula (I) according to Table 1 on various harmful plants and an application rate corresponding to 80 g/ha, which were obtained by the experimental procedure mentioned above.

[2] = tested on: AMARE: Amaranthus retroflexus; assay: Pre-emergence herbicide efficacy at 80 g/ha, AMARE; settings: scored visually after about 3 weeks
Excerpt: as §1

[3] = tested on: DIGSA: Digitaria sanguinalis; assay: Pre-emergence herbicide efficacy at 80 g/ha, DIGSA; settings: scored visually after about 3 weeks
Excerpt: as §1

[4] = tested on: VERPE: Veronica persica; assay: Post-emergence herbicidal efficacy at 80 g/ha, VERPE; settings: visual rating about 3 weeks after treatment vs untreated controls
Procedure: (§2) Seeds of monocotyledonous and dicotyledonous weeds and crop plants were placed in sandy loam in plastic or organic planting pots, covered with soil and cultivated in a greenhouse under controlled growth conditions. 2 to 3 weeks after sowing, the test plants were treated at the one-leaf stage. The compounds of the invention, formulated in the form of wettable powders (WP) or as emulsion concentrates (EC), were then sprayed onto the green parts of the plants as aqueous suspension or emulsion with addition of 0.5% additive at a water application rate of 600 l/ha (converted). After the test plants had been kept in the greenhouse under optimum growth conditions for about 3 weeks, the activity of the preparations was rated visually in comparison to untreated controls. For example, 100% activity=the plants have died, 0% activity=like control plants. Tables B1 to B10 below show the effects of selected compounds of the general formula (I) according to Table 1 on various harmful plants and an application rate corresponding to 80 g/ha, which were obtained by the experimental procedure mentioned above.

[5] = tested on: AMARE: Amaranthus retroflexus; assay: Post-emergence herbicidal efficacy at 80 g/ha, AMARE; settings: visual rating about 3 weeks after treatment vs untreated controls
Procedure: as §2

Compound | Pre-emergence efficacy against POLCO in % [1] | Pre-emergence efficacy against AMARE in % [2] | Pre-emergence efficacy against DIGSA in % [3] | Post-emergence efficacy against VERPE [4] | Post-emergence efficacy against AMARE [5]
Cc1cccc(Cc2ncc(F)cn2)c1Oc1ncc(F)cn1 [Example 1-162] | 80% | 90% | – | – | –
Cc1cccc(Cc2ncc(Cl)cn2)c1Oc1ncc(F)cn1 [Example 1-165] | 80% | – | 80% | – | –
O=S(=O)(CCCC(F)(F)F)Oc1c(F)cccc1Cc1ncc(Br)cn1 [Example 1-186] | – | – | – | 90% | 90%
O=S(=O)(CCC(F)(F)F)Oc1c(F)cccc1Cc1ncc(Br)cn1 [Example 1-187] | – | 100% | – | 90% | 90%
Cc1cccc(Cc2ncc(Cl)cn2)c1OS(=O)(=O)CCC(F)(F)F [Example 1-189] | – | 80% | – | 90% | –
O=S(=O)(CCCCl)Oc1c(F)cccc1Cc1ncc(Br)cn1 [Example 1-192] | – | – | – | 80% | –
O=S(=O)(CCCCl)Oc1c(F)cccc1Cc1ncc(Cl)cn1 [Example 1-193] | – | – | – | 90% | 90%
